In ChEMBL document CHEMBL2028040, “Malaria Box” one finds IC50, EC50 and inhibition data, which are given here for twelve molecules.

A short description of data set [1]: MMV: Cytotoxicity against human fibroblasts (MRC-5) cells. To be noted: MRC-5 cells (human fibroblasts).
A further data set relates to Trypanosoma cruzi. The experiment in a line: MMV: Inhibition of Trypanosoma cruzi (Tulahuen C4 LacZ) (Chagas in vitro). Type of data set: functional, organism-based.
The test system of data set [2] is Trypanosoma brucei rhodesiense. The experiment in a line: MMV: Inhibition of Trypanosoma brucei rhodesiense (STIB 900) (HAT in vitro). Format: functional, organism-based.
For data set [3], the system named is Trypanosoma brucei brucei. The experiment in a line: MMV: Inhibition of Trypanosoma brucei brucei (Squib 427) (HAT in vitro). Format: functional, organism-based.
In another data set the test system is Leishmania infantum. The experiment in a line: MMV: Inhibition of Leishmania infantum (MHOM/MA/BE/67) in vitro. Format: functional, organism-based.
Data set [4] deals with Plasmodium falciparum. The experiment in a line: MMV: Inhibition of Plasmodium falciparum 3D7 (EC50). Format: functional, organism-based.
Data set [5] relates to Plasmodium falciparum. The experiment in a line: MMV: Inhibition of Plasmodium falciparum 3D7 at 5uM compound concentration. Format: functional.

Structures are written as SMILES. A value given as a limit tells only on which side of the number the result lay.

On to `COc1cc(OC)cc(N2C(=O)N(Cc3ccc(C(C)(C)C)cc3)c3ccccc3S2(=O)=O)c1`, for which the half-maximal inhibitory concentration (IC50) is greater than 32 µM in data set [1]; 8.64 µM in the data set on Trypanosoma cruzi; 4.06 µM in data set [2]; 18.4 µM in data set [3]; 16.2 µM with Leishmania infantum. Besides, the EC50 in the data set with Plasmodium falciparum [4] came out at 1.43 µM. The inhibition at 5 µM in the data set on Plasmodium falciparum [5] is 97%.

For `COc1ccc(C2NCCc3c2[nH]c2ccccc32)cc1CN1CCN(c2ccc(F)cc2)CC1` (centres undefined), the half-maximal inhibitory concentration (IC50) is 3.94 µM in data set [1]; 2.75 µM with Trypanosoma cruzi; 0.246 µM in data set [2]; 2.78 µM in data set [3]; 1.19 µM in the data set with Leishmania infantum. In the data set on Plasmodium falciparum [4], this molecule showed an EC50 of 0.934 µM. The molecule also displayed an inhibition at 5 µM with Plasmodium falciparum [5] of 97%.

For `C=CCc1c(C)nc2ccccc2c1O`, the IC50 (in data set [1]; in the data set with Trypanosoma cruzi; in data set [2]; in data set [3]; with Leishmania infantum) was greater than 32 µM in each case. Besides, the concentration giving a half-maximal response (EC50) in the data set on Plasmodium falciparum [4] turned out to be 1.29 µM. The molecule further came in with an inhibition at 5 µM with Plasmodium falciparum [5] of 85%.

For `O=C(NC1CCCCC1)C(c1cccs1)N(CCc1ccccc1)C(=O)c1ccco1` (centres undefined), the IC50 was greater than 32 µM in data set [1]; greater than 32 µM in the data set on Trypanosoma cruzi; 19.2 µM in data set [2]; greater than 32 µM in data set [3]; greater than 32 µM in the data set with Leishmania infantum. In the data set with Plasmodium falciparum [4], this molecule had an EC50 of 1.07 µM. In the data set with Plasmodium falciparum [5], the inhibition at 5 µM is 90%.

As for `C=C(C)CCC(C)N1CCC(N2CCC(C(=O)NCCc3ccccc3)CC2)CC1` (centres undefined), the concentration for half-maximal inhibition (IC50) in data set [1] was 19 µM; with Trypanosoma cruzi, 18.2 µM; in data set [2] it was 7.79 µM; in data set [3], 17.7 µM; in the data set on Leishmania infantum it was greater than 32 µM. The molecule also showed an EC50 in the data set with Plasmodium falciparum [4] of 1.75 µM. Also, testing at 5 µM with Plasmodium falciparum [5] gave an inhibition of 96%.

In the case of `Cc1ccc2nc(C)cc(Nc3cccc(C(F)(F)F)c3)c2c1`, the half-inhibitory concentration (IC50) in data set [1] amounted to 28.9 µM; in the data set with Trypanosoma cruzi, 5.96 µM; in data set [2], 3.86 µM; in data set [3] it was 4.12 µM; in the data set with Leishmania infantum, 3.06 µM. The molecule further showed an EC50 with Plasmodium falciparum [4] of 1.17 µM. Also, in the data set on Plasmodium falciparum [5], the inhibition at 5 µM is 98%.

For `O=C(Nc1ccc(CN2CCOCC2)cc1)c1ccc(-c2ccc(Br)cc2)o1`, the half-inhibitory concentration (IC50) in data set [1] stood at 4.81 µM; in the data set with Trypanosoma cruzi it was 11 µM; in data set [2] it was 3.86 µM; in data set [3] it was 3.61 µM; in the data set on Leishmania infantum, 18.4 µM. In the data set on Plasmodium falciparum [4], this molecule registered an EC50 of 1.36 µM. This molecule yielded an inhibition at 5 µM in the data set with Plasmodium falciparum [5] of 96%.

With `COc1ccc(CNC(=O)c2cc3c(=O)n4ccccc4nc3n(CCc3ccccc3)c2=N)cc1`, the half-maximal inhibitory concentration (IC50) in data set [1] amounted to 14.7 µM; with Trypanosoma cruzi it was 4.91 µM; in data set [2] it was 3.15 µM; in data set [3] it was 11.9 µM; in the data set with Leishmania infantum, 13.6 µM. The molecule further gave a half-maximal effective concentration (EC50) in the data set with Plasmodium falciparum [4] of 1.06 µM. In the data set on Plasmodium falciparum [5], this molecule gave an inhibition at 5 µM of 95%.

As for `CCOc1ccc(C2N(C)c3ccccc3N2C)cc1`, the IC50 in data set [1] was 15.5 µM; in the data set on Trypanosoma cruzi it was 3.1 µM; in data set [2] it was greater than 32 µM; in data set [3] it was greater than 32 µM; in the data set on Leishmania infantum it was 25.4 µM. A half-maximal effect with Plasmodium falciparum [4] (EC50) was put at 0.941 µM. The molecule further came in with an inhibition at 5 µM in the data set with Plasmodium falciparum [5] of 72%.

For `CC(C)=CCN1CCC(C(=O)Nc2ccc(-c3nc4ccccc4[nH]3)cc2)CC1`, the concentration for half-maximal inhibition (IC50) in data set [1] was greater than 32 µM; with Trypanosoma cruzi, 23 µM; in data set [2], 2.34 µM; in data set [3], 5.04 µM; in the data set on Leishmania infantum it was greater than 32 µM. In addition, it took 1.16 µM to reach a half-maximal effect in the data set with Plasmodium falciparum [4] (EC50). The molecule further returned an inhibition at 5 µM in the data set with Plasmodium falciparum [5] of 96%.

On to `Cc1ccccc1OCCSc1nc2ccc(NC(=O)c3ccccc3)cc2s1`, for which the IC50 (in data set [1]; in the data set with Trypanosoma cruzi; in data set [2]; in data set [3]; in the data set on Leishmania infantum) was greater than 32 µM throughout. Also, the 50% effective concentration (EC50) in the data set on Plasmodium falciparum [4] was determined as 1.12 µM. Moreover, in the data set with Plasmodium falciparum [5], the inhibition at 5 µM came to 93%.

Regarding `O=C(NCC1Cc2cccc(-c3ccncc3)c2O1)c1csc2c1CCCC2` (centres undefined), the 50% inhibitory concentration (IC50) is 28.5 µM in data set [1]; 5.16 µM in the data set with Trypanosoma cruzi; 13.9 µM in data set [2]; 16.5 µM in data set [3]; greater than 32 µM in the data set with Leishmania infantum. In the data set on Plasmodium falciparum [4], this molecule came in with an EC50 of 1.72 µM. The molecule also returned an inhibition at 5 µM with Plasmodium falciparum [5] of 87%.

As a reminder, the IC50 is the concentration needed to halve the response being measured. Higher therefore signals weaker potency. For orientation: EC50 means the concentration that produces a half-maximal response. High values mean lower potency in that assay, low ones higher potency in that assay. As usually defined, the inhibition is the percentage by which the read-out fell short of the control.
